Measured values from US10568897B2, “Bidens pilosa and polyacetylenic compounds for prevention and treatment of coccidiosis” (ACADEMIA SINICA, priority 2011, dated 2020).

Tested on: E. tenella
Assay: Eimeria infection (coccidiosis) in chickens: survival, body weight, clinical symptoms, gut lesions, excreted oocysts
Type: in vivo
Details: for Body weight Day 21: diet with 6 mg/kg maduramicin or 50 g/kg BPP for 7 days, 6 mg/kg
Method: FIGS. 3 A-F show the effect of BPP on the survival rate (FIG. 3A), sick bird appearance (FIG. 3B) and clinical symptoms (FIG. 3C) in the chickens. One-day-old chickens were fed with control diet for 14 days. On day 14, the birds were infected with vehicle (CTR) or E. tenella (ET) and fed with control diet (CTR and ET groups) and the diet containing 6 mg/kg maduramicin (ET+Mad), or 5%, or 1%, or 0.5% of BPP (ET+BPP) for additional 7 days. After the birds were sacrificed, the cecum was dissected and fixed for hematoxylin and eosin Y staining. The representative images of cecal hemorrhagic lesions (FIG. 3D) and histopathology (FIG. 3E) are shown.
One-d-old Lohmann broiler chicks hatched at Taichung Hatchery (Taiwan) were wing-banded upon arrival, weighed, and randomly placed in Petersime starter brooder units. At 1 and 2 d post-hatch, the birds were given free access to water and diets. The diets were formulated by mixing the base diet (Chicken feed, Taiwan Sugar Corporation) with carrier alone (control diet) or the indicated dose of B. pilosa power (BPP diet). In case of cytopiloyne experiments, the animal was administered with 45 μg of isolated cytopiloyne each day. After grouping, birds were tube-fed with Eimeria oocysts. Growth performance (body weight and feed conversion), pathology (bloody droppings and gut morphometry) and survival rate were measured and examined. All birds were maintained in the institutional animal facility and handled according to the guidelines of the Academia Sinica Institutional Animal Care and Utilization Committee.
Since B. pilosa was claimed to treat protozoan and bacterial infections, we tested whether B. pilosa could protect the chickens from coccidiosis. To this end, we infected the […] birds with vehicle and Eimeria oocysts. The birds were given control diet, the control diet mixed with maduramicin, a commercial anti-coccidial, and 10% BPP diet. […] In contrast, 60% of the birds with Eimeria infection survived 7 days post-infection (FIG. 3A). However, treatment with a dose (6 mg/k) of maduramicin and a dose (50 g/kg) of […] BPP increased the survival rate of the birds with Eimeria infection by 30% (FIG. 3A). […] However, treatment with maduramicin and BPP increased body weight from 132.5 g to 145.4 g and 154.3 g. respectively (Table 2). […] One-d-old chickens were fed with control diet for 14 days. On day 14, the birds were infected with vehicle (CTR) or E. tenella (ET) and fed with control diet (CTR and ET groups) and the diet containing 6 mg/kg maduramicin (ET+Mad) or 50 g/kg BPP (E+T BPP) for additional 7 days. Body weight was measured. The number of the birds in each group is indicated in the parentheses.
Next, we checked clinical symptoms of the chickens with or without Eimeria infection. […] In contrast, the birds with Eimeria infection show the typical sick bird appearances (FIG. 3B). […] In contrast, treatment with maduramicin or BPP reduced bloody droppings and diarrhea (FIG. 3C).
The gut lesions of the birds 7 days post-infection were also examined. Hemorrhagic lesions in the cecum of the birds infected with Eimeria oocysts were observed (FIG. 3D). In contrast, treatment with maduramicin and BPP alleviated the severity of hemorrhagic lesions (FIG. 3D).
The excretion of oocysts is an important indicator of the efficacy of anti-coccidial drug. Thus, we assessed the number of excreted oocysts from the chickens with Eimeria infection. […] The data on the effect of BPP on the reduction of the excreted oocysts are consistent with the alleviation of the clinical symptoms by BPP. […] One-d-old chickens were fed with control diet for 14 days. On day 14, the birds were infected with vehicle (CTR) or E. tenella (ET) and fed with control diet (CTR and ET groups) and the diet containing 6 mg/kg maduramicin (ET+Mad) or 50 g/kg BPP (ET+BPP) for additional 7 days. The number of the excreted oocysts in the feces (oocysts per gram) of the birds was determined. […]

[1] = E. tenella infected on day 14, diet with 6 mg/kg maduramicin or 50 g/kg BPP
[2] = Eimeria infected birds given diet with maduramicin or BPP

With `CO[C@@H]1[C@@H](OC)[C@H](C)[C@@](O)(CC(=O)O)O[C@H]1[C@H](C)[C@H]1O[C@@]2(CC[C@@](C)([C@H]3CC[C@@](C)([C@@H]4O[C@@H]([C@H]5O[C@](C)(O)[C@H](C)C[C@@H]5C)C[C@@H]4O[C@@H]4C[C@H](OC)[C@@H](OC)[C@H](C)O4)O3)O2)C[C@H](O)[C@H]1C` [maduramicin, Maduramicin] the “Number of the excreted oocysts in the infected birds” value (6 mg/kg maduramicin or 50 g/kg BPP diet) was “reduced half”, the “Severity of hemorrhagic lesions in the cecum” value (7 days post-infection) was “alleviated” and the “Number of villi and depth of crypts in the gut” value (7 days post-infection, histostaining) was “increased”. The “Excreted oocysts in the feces Day 4” value [1] was 5 ± 0.3 oocysts per gram, the “Excreted oocysts in the feces Day 5” value [1] was 78 ± 3.8 oocysts per gram and the “Excreted oocysts in the feces Day 6” value [1] was 187 ± 4.7 oocysts per gram. The “Excreted oocysts in the feces Day 7” value [1] was 343 ± 52.2 oocysts per gram, the “Body weight Day 21” value (E. tenella infected on day 14) was 145.4 g and the “Body weight Day 21” value (E. tenella infected on day 14, listed as Mad) was 145.4 ± 6.2 g. For the same compound, the “Bloody droppings and diarrhea” value [2] was “reduced” and the “Sick bird appearance (droopiness, listlessness, ruffled feather)” value [2] was “no obvious sick bird appearance”.
